From patent US8895753B2, “S1P receptor modulating agent” (Meiji Seika Pharma Co., Ltd., priority 2011, dated 2014) come the findings set out here.

Data set [1] deals with electrocardiogram / monophasic action potential (MAP). Briefly: Evaluation of cardiovascular system in a guinea pig. The conditions noted are these: anesthetized guinea pig, 0.1 mg/kg body weight, infusion. In kind it is in vivo. From the text: Under anesthesia with 0.5 to 1% of halothane, to a male Hartley guinea-pig (Japan SLC, Inc.) that had been reared for more than one week, a catheter for administration of a drug solution was placed into the left jugular vein, a monophasic action potential (MAP) measurement/pacing catheter was placed into the endothelial lining of the right ventricle, a catheter for measuring blood pressure was placed into the left carotid artery, and the measurement of body surface electrocardiogram (lead II) was conducted. The drug solution was infused for 10 minutes and the measurement was carried out over 60 minutes. Also, 5, 10, 15, 20, 30, 45 and 60 minutes after the administration of the drug solution, pacing was performed (200, 240, 300 bpm), and monophasic action potential (MAP) was measured.

Data set [2] relates to collagen-induced arthritis. The data set is described as follows: Collagen-induced arthritis model. In kind it is in vivo. The conditions noted are these: DBA/1JN mouse, oral once daily for 4 weeks. As for the experimental part: A solution of Type II collagen derived from bovine and Freund's complete adjuvant were mixed to prepare an emulsion. This emulsion was used to elicit collagen-induced arthritis in a 7-week-old female DBA/1JN mouse. The initial sensitization was carried out by subcutaneous administration of the emulsion in the tail of the mouse at a dose of 150 μg/100 μL/body. 21 days after the initial sensitization, a freshly prepared collagen emulsion solution was administered subcutaneously in the tail of the mouse at a dose of 100 μg/100 μL/body as a secondary sensitization. The mouse prepared in this procedure was used as the collagen-induced arthritis model. A compound suspended in 0.5% hydroxymethyl cellulose solution was orally administered by force once daily for 4 weeks following the additional second sensitization. Pathological scores including joint symptoms and the like were measured, and the results compared to the vehicle-treated group, from which the efficacy of the compound was evaluated.

The next data set concerns electrocardiogram. The data set is described as follows: Evaluation of electrocardiogram in a rat (under anesthesia). In kind it is in vivo. The conditions noted are these: anesthetized rat, intravenous 0.1 mg/kg body weight. As for the experimental part:
Under anesthesia, femoral artery was cannulated in a 7-11-week-old male SD rat (Charles River Laboratories Japan Inc.) that had been reared for more than one week, connected to a polygraph (NIHON KODEN) via a pressure transducer. Without consciousness, a vehicle (dimethylsulfoxide) or a test compound was intravenously administered. After the administration, blood pressure, the heart rate, and electrocardiogram were monitored for about 10 minutes.

In data set [3] the test system is experimental autoimmune encephalomyelitis. Briefly: Experimental autoimmune encephalomyelitis model. In kind it is in vivo. To be noted: SJL/J mouse, orally once daily at 1 mg/kg body weight or more. Here is the method:
An emulsion of PLP139-151/CFA was subcutaneously administered to the upper dorsal region and in the tail of an 8-week-old female SJL/J mouse at a dose of 100 μL/body. At 2 hours and 24 hours after the administration, pertussis toxin was peritoneally administered at a dose of 100 μL/body. Thus, the mouse prepared in this procedure was used as an experimental autoimmune encephalomyelitis model. […] The compound suspended in a solution of 0.5% hydroxypropyl methylcellulose was orally administered by force once daily. The changes in pathological score and body weight were recorded and the results compared to the vehicle-treated group, from which the efficacy of the compounds was evaluated.

The next data set has as its target T1, Human S1P5 receptor (Homo sapiens, UniProt Q9H228).
T1 construct: host or cells: U2OS (EDG8-bla/U2OS)
Briefly: Agonist activity at an S1P5 receptor (reporter assay, EDG8-bla/U2OS cells). In kind it is cell-based. As for the experimental part: Human S1P5 receptor gene recombinant EDG8-bla/U2OS cells (Life Technologies Japan Ltd.) were plated in a 384-well clear bottom black plate at 10000 cells/32 μL/well, and the plate was incubated at 37° C. in a 5% CO2 incubator for 48 hours. A culture containing each test compound prepared as a 5× concentrate was added at 8 μL/well, and the plate was incubated at 37° C. in a 5% CO2 incubator for 5 hours. The substrate (LiveBLAzer™-FRET B/G substrate (CCF4-AM), Life Technologies Japan Ltd.) prepared as a 6× concentrate was added at 8 μL to each well, and the plate was incubated at room temperature for 2 hours in the dark. The fluorescence intensity of each well was measured using a bottom-reading fluorescence microplate reader at one excitation wavelength and 2 wavelengths for fluorescence emission (Ex409 nm, Em460 nm, Em530 nm). The intensity ratio of fluorescence at 460 nm/530 nm was calculated for each well. The maximum response ratio confirmed from the dose response of S1P was expressed as 100%. The concentration of test compound required to stimulate 50% of its maximal activation was determined as EC50 (nM).
Background: A reporter such as luciferase makes a cellular process visible.

Another data set deals with T2, Human S1P4 receptor (Homo sapiens, UniProt O95977).
T2 sequence (O95977 1-384): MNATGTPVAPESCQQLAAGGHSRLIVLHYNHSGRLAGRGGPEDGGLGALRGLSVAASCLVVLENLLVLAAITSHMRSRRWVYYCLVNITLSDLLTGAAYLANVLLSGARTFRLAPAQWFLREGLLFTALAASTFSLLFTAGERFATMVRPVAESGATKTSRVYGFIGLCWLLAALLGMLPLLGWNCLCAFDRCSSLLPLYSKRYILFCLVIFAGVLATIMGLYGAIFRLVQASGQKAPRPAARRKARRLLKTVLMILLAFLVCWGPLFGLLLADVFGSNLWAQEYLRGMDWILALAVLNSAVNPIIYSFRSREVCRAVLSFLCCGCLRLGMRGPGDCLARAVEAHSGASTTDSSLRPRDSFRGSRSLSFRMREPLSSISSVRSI
Briefly: Agonist activity at a S1P4 receptor (reporter assay, EDG6-bla/U2OS cells). In kind it is cell-based. As for the experimental part:
Human S1P4 receptor gene recombinant EDG6-bla/U2OS cells (Life Technologies Japan Ltd.) were seeded into each well of a 384-well clear bottom black plate treated with poly-D-lysine at a density of 10000 cells/32 μL/well and cultured at 37° C. in a 5% CO2 incubator for 16 to 24 hours. A culture medium containing each test compound prepared as a 5× concentrate was added at 8 μL/well, and the plate was cultured at 37° C. in a 5% CO2 incubator for 5 hours. The substrate (LiveBLAzer™-FRET B/G substrate (CCF4-AM), Life Technologies Japan Ltd.) prepared as a 6× concentrate was added at 8 μL to each well, and the plate was incubated for 2 hours in the dark. The fluorescence intensity of the test samples was measured using bottom-reading fluorescence microplate reader at one excitation wavelength and 2 wavelengths for fluorescence emission (Ex409 nm, Em460 nm, Em530 nm). The intensity ratio of fluorescence at 460 nm/530 nm was calculated for each well. The maximum response ratio confirmed from the dose response of S1P was expressed as 100%. The concentration of the test compound required to stimulate 50% of its maximal activation was computed as EC50 (nM).

In general, EC50 refers to the midpoint of the concentration-response curve. A high value points to a less potent agent.

T1 sequence (Q9H228 whole entry): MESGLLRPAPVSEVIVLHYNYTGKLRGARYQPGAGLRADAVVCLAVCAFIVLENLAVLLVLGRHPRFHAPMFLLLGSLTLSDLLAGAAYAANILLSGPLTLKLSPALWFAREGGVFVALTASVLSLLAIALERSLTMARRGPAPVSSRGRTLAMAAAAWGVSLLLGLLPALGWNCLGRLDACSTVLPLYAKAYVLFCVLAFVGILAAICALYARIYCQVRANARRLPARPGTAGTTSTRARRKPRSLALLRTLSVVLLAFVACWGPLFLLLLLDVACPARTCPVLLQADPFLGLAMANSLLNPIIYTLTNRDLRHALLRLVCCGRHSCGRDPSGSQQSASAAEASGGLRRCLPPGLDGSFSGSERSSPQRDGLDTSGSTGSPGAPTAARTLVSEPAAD

In the case of `CC(C)Oc1ccc(-c2cnc(-c3ccc(CN4CC(C(=O)O)C4)cc3)s2)cc1` [Example 2, 1-(4-(5-(4-isopropoxyphenyl)thiazol-2-yl)benzyl)azetidine-3-carboxylic acid], in data set [1], the MAP90 prolongation effect result is on record as “not observed” and the “prolonged QT” value is reported as “not observed”. Moreover, the “efficacy on pathological scores (joint symptoms)” value in data set [2] is reported as “equally effective as Fingolimod”. Further, the “duration of continuous cardiac arrhythmia (AV block)” value in the data set on electrocardiogram is less than 10 s. In addition, the “inhibition of pathological scores” value in data set [3] is listed as “significantly inhibit”. Further, the EC50 at Human S1P5 receptor was not below 2 µM. In addition, the EC50 at Human S1P4 receptor was not below 2 µM.
Turning to `CC(C)Oc1ccc(-c2cnc(-c3ccc(CN4CC(C(=O)O)C4)cc3)s2)cc1Cl` [Example 3, 1-(4-(5-(3-chloro-4-isopropoxyphenyl)thiazol-2-yl)benzyl)azetidine-3-carboxylic acid], the EC50 on Human S1P5 receptor and on Human S1P4 receptor was not below 2 µM each time.
